Measurements: ChEMBL document CHEMBL3352614, “MoGAT-2 Inhibitors May Provide Effective Treatment for Hypertriglyceridemia” (ACS Med Chem Lett, 2014)

Target: 2-acylglycerol O-acyltransferase 2 (Homo sapiens, UniProt Q3SYC2)
Experiment: Inhibition of human MoGAT-2 expressed in human Caco2 cells assessed as inhibition of 2-O-Hexadecylglycerol […] pretreated for 30 mins by LC-MS analysis
Type: cell-based, Caco-2

2-acylglycerol O-acyltransferase 2, sequence (Q3SYC2 whole entry): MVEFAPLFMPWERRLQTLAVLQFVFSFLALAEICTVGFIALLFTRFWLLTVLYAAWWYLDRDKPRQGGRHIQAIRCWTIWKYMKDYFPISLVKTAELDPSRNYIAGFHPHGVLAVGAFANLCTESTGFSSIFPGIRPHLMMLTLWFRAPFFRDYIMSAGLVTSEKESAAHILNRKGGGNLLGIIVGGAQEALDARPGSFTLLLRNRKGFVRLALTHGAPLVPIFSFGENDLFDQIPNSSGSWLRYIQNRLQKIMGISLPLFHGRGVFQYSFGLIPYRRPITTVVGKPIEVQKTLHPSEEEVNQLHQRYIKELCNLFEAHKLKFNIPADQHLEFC

- IC50: 0.294 µM
SMILES: C[C@@H](NS(C)(=O)=O)c1ccc(CNC[C@@H]2CO[C@@H](c3ccccc3)CO2)cc1
